What was measured:
Rattus norvegicus = organism: Rattus norvegicus; test: PD2 value was calculated as -log value of the concentration of the test compound to inhibit 60 mM KCl-induced contractions to 50% expressed as calcium antagonistic activity; format: functional
Canis familiaris [1] = organism: Canis familiaris; test: Concentration of the test compound required to inhibit the auto oxidative lipid peroxidations in canine brain homogenates by 50% was determined; format: functional; conditions: Canis lupus familiaris
Canis familiaris [2] = organism: Canis familiaris; test: Inhibitory activity against KCl induced contractile response in isolated canine basilar artery was determined expressed as vasodilation effect; format: functional, Canis lupus familiaris
Canis familiaris [3] = organism: Canis familiaris; test: Inhibitory activity against KCl induced contractile response in isolated canine renal artery was determined expressed as vasodilation effect; format: functional, Canis lupus familiaris
Canis familiaris [4] = organism: Canis familiaris; test: Inhibitory activity against KCl induced contractile response in isolated canine mesenteric artery was determined expressed as vasodilation effect; format: functional, Canis lupus familiaris
Canis familiaris [5] = organism: Canis familiaris; test: Inhibitory activity against KCl induced contractile response in isolated canine coronary artery was determined expressed as vasodilation effect; format: functional, Canis lupus familiaris

SMILES | PD2 (Rattus norvegicus) | IC50 (Canis familiaris [1]) | PD2 (Canis familiaris [2]) | PD2 (Canis familiaris [3]) | PD2 (Canis familiaris [4]) | PD2 (Canis familiaris [5])
CC(=O)OC(CNc1ccccc1)CN1CCN(CCCC(c2ccc(F)cc2)c2ccc(F)cc2)CC1 (centres undefined) | 6.38 | 13 µM | – | – | – | –
Cc1c(C)c2c(c(C)c1O)CC[C@@](C)(CCC[C@H](C)CCC[C@H](C)CCCC(C)C)O2 [ALPHA-TOCOPHEROL] | – | 1.5 µM | – | – | – | –
Fc1ccc(C(c2ccc(F)cc2)N2CCN(C/C=C/c3ccccc3)CC2)cc1 [FLUNARIZINE] | 5.98 | – | – | – | – | –
OC(CSc1ccccc1)CN1CCN(CCCC(c2ccc(F)cc2)c2ccc(F)cc2)CC1 (centres undefined) | 6.79 | 15 µM | 7 | 5.73 | 5.8 | 6.38
OC(CSCc1ccccc1)CN1CCN(CCCC(c2ccc(F)cc2)c2ccc(F)cc2)CC1 (centres undefined) | 6.93 | 28 µM | – | – | – | –
CC(=O)N(CC(O)CN1CCN(CCCC(c2ccc(F)cc2)c2ccc(F)cc2)CC1)c1ccccc1 (centres undefined) | 5.98 | 390 µM | – | – | – | –
OC(CNc1ccccc1)CN1CCN(CCCC(c2ccc(F)cc2)c2ccc(F)cc2)CC1 (centres undefined) | 6.7 | 6.5 µM | 6.76 | 6.27 | 6.1 | 6.32
COC(CSc1ccccc1)CN1CCN(CCCC(c2ccc(F)cc2)c2ccc(F)cc2)CC1 (centres undefined) | 6.69 | 20 µM | – | – | – | –
CC(=O)OC(CSc1ccccc1)CN1CCN(CCCC(c2ccc(F)cc2)c2ccc(F)cc2)CC1 (centres undefined) | 6.55 | 20 µM | – | – | – | –
OC(CNCc1ccccc1)CN1CCN(CCCC(c2ccc(F)cc2)c2ccc(F)cc2)CC1 (centres undefined) | 5.85 | 6.9 µM | – | – | – | –
CN(CC(O)CN1CCN(CCCC(c2ccc(F)cc2)c2ccc(F)cc2)CC1)c1ccccc1 (centres undefined) | 5.83 | 19 µM | – | – | – | –
COC(CNc1ccccc1)CN1CCN(CCCC(c2ccc(F)cc2)c2ccc(F)cc2)CC1 (centres undefined) | – | 15 µM | – | – | – | –
